Assay results published in ChEMBL document CHEMBL2385074, “Structure-activity relationship analysis of bufadienolide-induced in vitro growth inhibitory effects on mouse and human cancer cells” (J Nat Prod, 2013).
The source made the active and inactive calls. The calls are words filed in the database; no cut-off is given here.

Columns and labels:
B16-F10 [1] = assay: Cytotoxicity against mouse B16F10 cells at <= 10 uM after 3 days by MTT assay; format: functional, cell-based
A549 [2] = assay: Cytotoxicity against human A549 cells at <= 10 uM after 3 days by MTT assay; format: functional, cell-based
U-373MG ATCC = assay: Cytotoxicity against human U373 cells at <= 10 uM after 3 days by MTT assay; format: functional, cell-based
MCF7 [3] = assay: Cytotoxicity against human MCF7 cells at <= 10 uM after 3 days by MTT assay; format: functional, cell-based
CT26.WT = assay: Cytotoxicity against mouse CT26.WT cells at <= 10 uM after 3 days by MTT assay; format: functional, cell-based
SK-MEL-28 [4] = assay: Cytotoxicity against human SK-MEL-28 cells at <= 10 uM after 3 days by MTT assay; format: functional, cell-based
Hs 683 = assay: Cytotoxicity against human Hs683 cells at <= 10 uM after 3 days by MTT assay; format: functional, cell-based
PC-3 [5] = assay: Cytotoxicity against human PC3 cells at <= 10 uM after 3 days by MTT assay; format: functional, cell-based
[6] = Cytotoxicity against human U373 cells after 3 days by MTT assay; format: functional, cell-based, U-373MG ATCC; conditions: U373 MG, 72 h
B16-F10 [7] = assay: Cytotoxicity against mouse B16F10 cells after 3 days by MTT assay; format: functional, cell-based; conditions: B16-F10, 72 h
[8] = Cytotoxicity against human Hs683 cells after 3 days by MTT assay; format: functional, cell-based; conditions: Hs 683, 72 h
[9] = Cytotoxicity against mouse CT26.WT cells after 3 days by MTT assay; format: functional, cell-based; conditions: 72 h
SK-MEL-28 [10] = assay: Cytotoxicity against human SK-MEL-28 cells after 3 days by MTT assay; format: functional, cell-based; conditions: SK-MEL-28, 72 h
MCF7 [11] = assay: Cytotoxicity against human MCF7 cells after 3 days by MTT assay; format: functional, cell-based; conditions: MCF7, 72 h
A549 [12] = assay: Cytotoxicity against human A549 cells after 3 days by MTT assay; format: functional, cell-based; conditions: A549, 72 h
PC-3 [13] = assay: Cytotoxicity against human PC3 cells after 3 days by MTT assay; format: functional, cell-based; conditions: PC-3, 72 h

COC(=O)[C@H]1CC[C@]2(O)[C@@H]3CC[C@@H]4C[C@@H](OC(C)=O)CC[C@]4(C)[C@H]3[C@H](OC(C)=O)C(=O)[C@]12C
Activity (B16-F10 [1]): inactive
Activity (A549 [2]): inactive
Activity (U-373MG ATCC): inactive
Activity (MCF7 [3]): inactive
Activity (CT26.WT): inactive
Activity (SK-MEL-28 [4]): inactive
Activity (Hs 683): inactive
Activity (PC-3 [5]): inactive

COC(=O)[C@H]1CC[C@]2(O)[C@@H]3CC[C@@H]4C[C@@H](OC(C)=O)CC[C@]4(C)[C@H]3[C@H](OC(C)=O)[C@@H](OC(C)=O)[C@]12C
Activity (B16-F10 [1]): inactive
Activity (A549 [2]): inactive
Activity (U-373MG ATCC): inactive
Activity (MCF7 [3]): inactive
Activity (CT26.WT): inactive
Activity (SK-MEL-28 [4]): inactive
Activity (Hs 683): inactive
Activity (PC-3 [5]): inactive

COC(=O)[C@H]1CC[C@]2(OC=O)[C@@H]3CC[C@@H]4C[C@@H](OC(C)=O)CC[C@]4(C)[C@H]3[C@H](OC(C)=O)C(=O)[C@]12C
Activity (B16-F10 [1]): inactive
Activity (A549 [2]): inactive
Activity (U-373MG ATCC): inactive
Activity (MCF7 [3]): inactive
Activity (CT26.WT): inactive
Activity (SK-MEL-28 [4]): inactive
Activity (Hs 683): inactive
Activity (PC-3 [5]): inactive

C[C@@H]1O[C@@H](O[C@H]2CC[C@@]3(C)[C@H](CC[C@@H]4[C@@H]3[C@H](O)C[C@]3(C)[C@@H](c5ccc(=O)oc5)CC[C@]43O)C2)[C@H](O)[C@H](O)[C@H]1O
IC50 [6]: 3 nM
IC50 (B16-F10 [7]): 659 nM
IC50 [8]: 2 nM
IC50 [9]: 877 nM
IC50 (SK-MEL-28 [10]): 5 nM
IC50 (MCF7 [11]): 8 nM
IC50 (A549 [12]): < 1 nM
IC50 (PC-3 [13]): < 1 nM

COC(=O)[C@H]1[C@@H](O)[C@H]2O[C@]23[C@@H]2CC[C@@H]4C[C@@H](OC(C)=O)CC[C@]4(C)[C@H]2CC[C@]13C
Activity (B16-F10 [1]): inactive
Activity (A549 [2]): inactive
Activity (U-373MG ATCC): inactive
Activity (MCF7 [3]): inactive
Activity (CT26.WT): inactive
Activity (SK-MEL-28 [4]): inactive
Activity (Hs 683): inactive
Activity (PC-3 [5]): inactive

C[C@]12CC[C@H]3[C@@H](CC[C@H]4C[C@@H](O)CC[C@@]43C=O)[C@@]1(O)CC[C@@H]2c1ccc(=O)oc1
IC50 [6]: 62 nM
IC50 (B16-F10 [7]): > 10000 nM
IC50 [8]: 40 nM
IC50 [9]: > 10000 nM
IC50 (SK-MEL-28 [10]): 336 nM
IC50 (MCF7 [11]): 278 nM
IC50 (A549 [12]): 51 nM
IC50 (PC-3 [13]): 2430 nM

C[C@]12CCC(=O)C=C1CC[C@@H]1[C@@H]2CC[C@]2(C)[C@@H](c3ccc(=O)oc3)CC[C@]12O [SCILLARENONE]
IC50 [6]: 399 nM
IC50 (B16-F10 [7]): > 10000 nM
IC50 [8]: 73 nM
IC50 [9]: > 10000 nM
IC50 (SK-MEL-28 [10]): 1610 nM
IC50 (MCF7 [11]): 341 nM
IC50 (A549 [12]): 333 nM
IC50 (PC-3 [13]): 284 nM

C[C@]12CC[C@H](OC(c3ccccc3)c3ccccc3)C[C@@]1(O)CC[C@@H]1[C@@H]2CC[C@]2(C)[C@@H](C(=O)OC(c3ccccc3)c3ccccc3)CC[C@]12O
Activity (B16-F10 [1]): inactive
Activity (A549 [2]): inactive
Activity (U-373MG ATCC): inactive
Activity (MCF7 [3]): inactive
Activity (CT26.WT): inactive
Activity (SK-MEL-28 [4]): inactive
Activity (Hs 683): inactive
Activity (PC-3 [5]): inactive

CC(=O)O[C@H]1CC[C@@]2(C)[C@H](CC[C@@H]3[C@@H]2[C@H](OC(C)=O)C(=O)[C@]2(C)[C@@H]4CC[C@]32OC4=O)C1
Activity (B16-F10 [1]): inactive
Activity (A549 [2]): inactive
Activity (U-373MG ATCC): inactive
Activity (MCF7 [3]): inactive
Activity (CT26.WT): inactive
Activity (SK-MEL-28 [4]): inactive
Activity (Hs 683): inactive
Activity (PC-3 [5]): inactive

C[C@]12CC[C@H](O)C[C@H]1CC[C@@H]1[C@@H]2C(=O)[C@@H](O)[C@]2(C)[C@@H](c3ccc(=O)oc3)CC[C@]12O [BUFARENOGIN]
IC50 [6]: > 10000 nM
IC50 (B16-F10 [7]): > 10000 nM
IC50 [8]: 2680 nM
IC50 [9]: > 10000 nM
IC50 (SK-MEL-28 [10]): > 10000 nM
IC50 (MCF7 [11]): 9300 nM
IC50 (A549 [12]): 3840 nM
IC50 (PC-3 [13]): 7420 nM

CC(=O)O[C@H]1C[C@]2(O)[C@@H]3CC[C@@H]4C[C@@H](O)CC[C@]4(C)[C@H]3CC[C@]2(C)[C@H]1c1ccc(=O)oc1 [BUFOTALIN]
IC50 [6]: 74 nM
IC50 (B16-F10 [7]): > 10000 nM
IC50 [8]: 9 nM
IC50 [9]: > 10000 nM
IC50 (SK-MEL-28 [10]): 65 nM
IC50 (MCF7 [11]): 37 nM
IC50 (A549 [12]): 14 nM
IC50 (PC-3 [13]): 34 nM

C[C@]12CC[C@H](O)C[C@@H]1CC[C@@H]1[C@@H]2CC[C@]2(C)[C@@H](c3ccc(=O)oc3)CC[C@]12O
IC50 [6]: 362 nM
IC50 (B16-F10 [7]): > 10000 nM
IC50 [8]: 21 nM
IC50 [9]: > 10000 nM
IC50 (SK-MEL-28 [10]): 463 nM
IC50 (MCF7 [11]): 428 nM
IC50 (PC-3 [13]): 67 nM

C[C@@H]1O[C@@H](O[C@H]2CC[C@]3(C=O)[C@H]4CC[C@]5(C)[C@@H](c6ccc(=O)oc6)CC[C@]5(O)[C@@H]4CC[C@]3(O)C2)[C@H](O)[C@H](O)[C@H]1O[C@@H]1O[C@H](CO)[C@@H](O)[C@H](O)[C@H]1O [HELLEBRIN]
IC50 [6]: 36 nM
IC50 (B16-F10 [7]): > 10000 nM
IC50 [8]: 7 nM
IC50 [9]: > 10000 nM
IC50 (SK-MEL-28 [10]): 68 nM
IC50 (MCF7 [11]): 44 nM
IC50 (A549 [12]): 6 nM
IC50 (PC-3 [13]): 11 nM

CC(=O)O[C@H]1CC[C@@]2(C=O)[C@H](CC[C@@H]3[C@@H]2CC[C@]2(C)[C@@H](c4ccc(=O)oc4)C[C@H]4O[C@]342)C1
IC50 [6]: 7050 nM
IC50 (B16-F10 [7]): > 10000 nM
IC50 [8]: 3660 nM
IC50 [9]: > 10000 nM
IC50 (SK-MEL-28 [10]): > 10000 nM
IC50 (MCF7 [11]): > 10000 nM
IC50 (A549 [12]): 7140 nM
IC50 (PC-3 [13]): 5340 nM

C[C@@H]1O[C@@H](O[C@H]2C[C@@H](O)[C@]3(CO)[C@H]4[C@H](O)C[C@]5(C)[C@@H](C6=CC(=O)OC6)CC[C@]5(O)[C@@H]4CC[C@]3(O)C2)[C@H](O)[C@H](O)[C@H]1O [OUABAIN]
IC50 [6]: 77 nM
IC50 (B16-F10 [7]): > 10000 nM
IC50 [8]: 28 nM
IC50 [9]: > 10000 nM
IC50 (SK-MEL-28 [10]): 211 nM
IC50 (MCF7 [11]): 133 nM
IC50 (A549 [12]): 27 nM
IC50 (PC-3 [13]): 43 nM

C[C@H]1O[C@@H](O[C@H]2[C@@H](O)C[C@H](O[C@H]3[C@@H](O)C[C@H](O[C@H]4CC[C@@]5(C)[C@H](CC[C@@H]6[C@@H]5C[C@@H](O)[C@]5(C)[C@@H](C7=CC(=O)OC7)CC[C@]65O)C4)O[C@@H]3C)O[C@@H]2C)C[C@H](O)[C@@H]1O [DIGOXIN]
IC50 [6]: 146 nM
IC50 (B16-F10 [7]): > 10000 nM
IC50 [8]: 40 nM
IC50 [9]: > 10000 nM
IC50 (SK-MEL-28 [10]): 266 nM
IC50 (MCF7 [11]): 426 nM
IC50 (A549 [12]): 50 nM
IC50 (PC-3 [13]): 75 nM

CC(=O)N[C@@H]1CC[C@@]2(C)[C@H](CC[C@@H]3[C@@H]2CC[C@]2(C)[C@@H](c4ccc(=O)oc4)[C@@H](OC(C)=O)[C@H]4O[C@]342)C1
IC50 [6]: 384 nM
IC50 (B16-F10 [7]): > 10000 nM
IC50 [8]: 312 nM
IC50 [9]: > 10000 nM
IC50 (SK-MEL-28 [10]): 3510 nM
IC50 (MCF7 [11]): 726 nM
IC50 (A549 [12]): 302 nM
IC50 (PC-3 [13]): 426 nM

CC(=O)O[C@H]1CC[C@@]2(C)[C@H](CC[C@@H]3[C@@H]2[C@H](OC(C)=O)C(=O)[C@]2(C)[C@@H](c4ccc(=O)oc4)CC[C@]32O)C1
IC50 [6]: 8810 nM
IC50 (B16-F10 [7]): > 10000 nM
IC50 [8]: 2620 nM
IC50 [9]: > 10000 nM
IC50 (SK-MEL-28 [10]): 7980 nM
IC50 (MCF7 [11]): 7260 nM
IC50 (A549 [12]): 5910 nM
IC50 (PC-3 [13]): > 10000 nM

COC(=O)[C@H]1CC[C@]2(O)[C@@H]3CC[C@@H]4C[C@@H](OC(C)=O)CC[C@]4(C)[C@H]3[C@H](OC(C)=O)C[C@]12C
Activity (B16-F10 [1]): inactive
Activity (A549 [2]): inactive
Activity (U-373MG ATCC): inactive
Activity (MCF7 [3]): inactive
Activity (CT26.WT): inactive
Activity (SK-MEL-28 [4]): inactive
Activity (Hs 683): inactive
Activity (PC-3 [5]): inactive

CC(=O)OC[C@H]1CC[C@H]2[C@@H]3CC[C@@H]4C[C@@H](OC(C)=O)CC[C@]4(C)[C@H]3C(=O)[C@@H](OC(C)=O)[C@]12C
Activity (B16-F10 [1]): inactive
Activity (A549 [2]): inactive
Activity (U-373MG ATCC): inactive
Activity (MCF7 [3]): inactive
Activity (CT26.WT): inactive
Activity (SK-MEL-28 [4]): inactive
Activity (Hs 683): inactive
Activity (PC-3 [5]): inactive

C[C@]12CC[C@H](O)C[C@H]1CC[C@@H]1C2=C(O)C(=O)[C@]2(C)[C@@H](c3ccc(=O)oc3)CC[C@]12O [ARGENTINOGENIN]
IC50 [6]: 86 nM
IC50 (B16-F10 [7]): > 10000 nM
IC50 [8]: 9 nM
IC50 [9]: > 10000 nM
IC50 (SK-MEL-28 [10]): 70 nM
IC50 (MCF7 [11]): 36 nM
IC50 (A549 [12]): 53 nM
IC50 (PC-3 [13]): 43 nM
